The source of these data is patent US20240067625A1, “SMALL-MOLECULE MODULATORS OF THE ORPHAN NUCLEAR RECEPTOR TLX” (priority 2020, published 2024).

The target of the assay is TLX LBD (Homo sapiens (Human), UniProt Q9Y466). Description: ALPHA screen assay for TLX LBD and coactivator peptide recruitment. Conditions: Table 3; for Average ALPHA signal at 200 μM (std. dev.): mean (std. dev.). Type of assay: biochemical. How it is done: Assays were performed according to the manufacturer's protocol (PerkinElmer, USA), with the following modifications: Ligands were tested for TLX-coactivator binding in 50 mM phosphate buffer, 150 mM NaCl, pH 7, 1 mM DTT and 100 μM CHAPS. Ligands were dissolved and diluted in DMSO as stocks and were prepared in assay buffer from the original stock in the 100% DMSO and added to the assay plate. Biotinylated SRC peptide and polyhistidine tagged TLX LBD were diluted in assay buffer, subsequently added to respective ALPHA beads, under low light. The plates were spun down, mixed with a shaker and incubated for 120 minutes and read on a TECAN Plate reader using the manufacturer's protocol.
Sequence of TLX LBD (Q9Y466 155-383): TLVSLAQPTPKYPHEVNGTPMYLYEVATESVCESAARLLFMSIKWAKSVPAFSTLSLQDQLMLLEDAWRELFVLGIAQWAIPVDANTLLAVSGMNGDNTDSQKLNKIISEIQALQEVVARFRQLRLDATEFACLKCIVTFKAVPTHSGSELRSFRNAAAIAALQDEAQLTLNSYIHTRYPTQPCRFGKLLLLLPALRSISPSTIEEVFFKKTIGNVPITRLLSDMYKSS

Turning to `Cc1cc(C(=O)N2CCN(C(c3ccccc3)c3ccccc3)CC2)nn1C` [Compound 30, reference compound], the EC50 came to 0.0673 nM and the “Average ALPHA signal at 200 μM (std. dev.)” value (from here on “Average ALPHA signal”) was 1.93 (0.08).

Turning to `Cc1ccccc1CN1CCN(C(=O)c2cccnc2NCCC(C)C)[C@@H](C)C1` [Compound 31], the EC50 worked out at 0.0138 nM and the “Average ALPHA signal” value is 4.52 (0.06).

For `Cc1cccc(CN2CCN(C(=O)c3cccnc3NCCC(C)C)[C@@H](C)C2)c1` [Compound 32], the EC50 worked out at 0.0143 nM and the “Average ALPHA signal” value was 3.85 (0.09).

`Cc1ccc(CN2CCN(C(=O)c3cccnc3NCCC(C)C)[C@@H](C)C2)cc1` [Compound 33]: a half-maximal response (EC50) required 0.0187 nM and the “Average ALPHA signal” value is recorded as 3.89 (0.21).

Turning to `CC(C)CCNc1ncccc1C(=O)N1CCN(Cc2ccccn2)C[C@@H]1C` [Compound 34], the “Average ALPHA signal” value is reported as 1.29 (0.05).

Take `CC(C)CCNc1ncccc1C(=O)N1CCN(CCCc2ccccc2)C[C@@H]1C` [Compound 35]: the EC50 came out at 0.0128 nM and the “Average ALPHA signal” value is on record as 4.57 (0.38).

In the case of `CCCCCCN1CCN(C(=O)c2cccnc2NCCC(C)C)[C@@H](C)C1` [Compound 36], the EC50 was determined as 0.0126 nM and the “Average ALPHA signal” value was 8.78 (0.30).

As to `CCCCN1CCN(C(=O)c2cccnc2NCCC(C)C)[C@@H](C)C1` [Compound 37], a half-maximal effect (EC50) was put at 0.0335 nM and the “Average ALPHA signal” value was 2.30 (0.02).

For the compound `CC(C)CCNc1ncccc1C(=O)N1CCN(C)C[C@@H]1C` [Compound 38], the “Average ALPHA signal” value is given as 0.85 (0.06).

Take `COc1cccc(CN2CCN(C(=O)c3cccnc3NCCC(C)C)[C@@H](C)C2)c1` [Compound 39]: the EC50 was determined as 0.0276 nM and the “Average ALPHA signal” value is recorded as 3.19 (0.17).

Take `CC(C)CCNc1ncccc1C(=O)N1CCN(Cc2ccc3cnccc3c2)C[C@@H]1C` [Compound 40]: the EC50 was 0.0529 nM and the “Average ALPHA signal” value is 2.48 (0.02).

With `CC(C)CCNc1ncccc1C(=O)N1CCN(CCC2CCN(C(=O)OC(C)(C)C)CC2)C[C@@H]1C` [Compound 41], a half-maximal response (EC50) required 0.00585 nM and the “Average ALPHA signal” value is 2.73 (0.13).

Consider `CC(C)CCNc1ncccc1C(=O)N1CCN(Cc2c[nH]c3ccccc23)C[C@@H]1C` [Compound 42], for which the “Average ALPHA signal” value was 0.96 (0.05).

With `Cc1ccccc1CN1CCN(C(=O)c2cccnc2NCCC(C)C)[C@H](C)C1` [Compound 43], the “Average ALPHA signal” value is listed as 3.49 (0.17).

Turning to `Cc1cccc(CN2CCN(C(=O)c3cccnc3NCCC(C)C)[C@H](C)C2)c1` [Compound 44], the EC50 is 0.0124 nM and the “Average ALPHA signal” value was 3.28 (0.09).

Turning to `Cc1ccc(CN2CCN(C(=O)c3cccnc3NCCC(C)C)[C@H](C)C2)cc1` [Compound 45], the EC50 is 0.0113 nM and the “Average ALPHA signal” value is recorded as 3.50 (0.06).

As for `CC(C)CCNc1ncccc1C(=O)N1CCN(Cc2ccccn2)C[C@H]1C` [Compound 46], the “Average ALPHA signal” value is listed as 0.86 (0.09).

As for `CCCCCCN1CCN(C(=O)c2cccnc2NCCC(C)C)[C@H](C)C1` [Compound 47], a half-maximal response (EC50) required 0.0125 nM and the “Average ALPHA signal” value is on record as 7.81 (0.45).

As for `CC(C)CCNc1ncccc1C(=O)N1CCN(CCCc2ccccc2)C[C@H]1C` [Compound 48], the “Average ALPHA signal” value is listed as 3.75 (0.31).

For the compound `CCCCN1CCN(C(=O)c2cccnc2NCCC(C)C)[C@H](C)C1` [Compound 49], the response was half-maximal at 0.0332 nM (EC50) and the “Average ALPHA signal” value was 3.09 (0.12).

`CC(C)CCNc1ncccc1C(=O)N1CCN(C)C[C@H]1C` [Compound 50]: the “Average ALPHA signal” value was 0.93 (0.05).

For `COc1cccc(CN2CCN(C(=O)c3cccnc3NCCC(C)C)[C@H](C)C2)c1` [Compound 51], the EC50 came to 0.0199 nM and the “Average ALPHA signal” value was 2.98 (0.10).

As to `CC(C)CCNc1ncccc1C(=O)N1CCN(Cc2ccc3cnccc3c2)C[C@H]1C` [Compound 52], the response was half-maximal at 0.0261 nM (EC50) and the “Average ALPHA signal” value is given as 2.03 (0.12).

Turning to `CC(C)CCNc1ncccc1C(=O)N1CCN(CCC2CCN(C(=O)OC(C)(C)C)CC2)C[C@H]1C` [Compound 53], the EC50 was found to be 0.00904 nM and the “Average ALPHA signal” value is recorded as 2.84 (0.05).

`CC(C)CCNc1ncccc1C(=O)N1CCN(Cc2c[nH]c3ccccc23)C[C@H]1C` [Compound 54]: the “Average ALPHA signal” value is reported as 1.17 (0.06).

Regarding `COC(=O)c1ccccc1CN1CCN(C(=O)c2cccnc2NCCC(C)C)CC1` [Compound 55], the EC50 is 0.0412 nM and the “Average ALPHA signal” value is listed as 2.87 (0.07).

In the case of `COC(=O)c1cccc(CN2CCN(C(=O)c3cccnc3NCCC(C)C)CC2)c1` [Compound 56], it took 0.0442 nM to reach a half-maximal effect (EC50) and the “Average ALPHA signal” value is on record as 2.74 (0.08).

Take `COC(=O)c1ccc(CN2CCN(C(=O)c3cccnc3NCCC(C)C)CC2)cc1` [Compound 57]: the EC50 stood at 0.0745 nM and the “Average ALPHA signal” value is listed as 2.54 (0.04).

Consider `CC(C)CCNc1ncccc1C(=O)N1CCN(Cc2ccccc2C(=O)O)CC1` [Compound 58], for which the “Average ALPHA signal” value is reported as 1.30 (0.05).

Take `CC(C)CCNc1ncccc1C(=O)N1CCN(Cc2cccc(C(=O)O)c2)CC1` [Compound 59]: the “Average ALPHA signal” value is 1.25 (0.09).

As to `CC(C)CCNc1ncccc1C(=O)N1CCN(Cc2ccc(C(=O)O)cc2)CC1` [Compound 60], the “Average ALPHA signal” value is 1.06 (0.05).

For the compound `COC(=O)C[C@@H]1CN(C(=O)c2cccnc2NCCC(C)C)C[C@H](C)N1Cc1ccccc1` [Compound 61], the EC50 was 0.0152 nM and the “Average ALPHA signal” value is 2.89 (0.07).

Take `COC(=O)C[C@H]1CN(C(=O)c2cccnc2NCCC(C)C)C[C@H](C)N1Cc1ccccc1` [Compound 62]: the EC50 is 0.012 nM and the “Average ALPHA signal” value was 2.54 (0.08).

In the case of `COC(=O)C[C@H]1CN(C(=O)c2cccnc2NCCC(C)C)C[C@@H](C)N1Cc1ccccc1` [Compound 63], the EC50 worked out at 0.0123 nM and the “Average ALPHA signal” value is 2.72 (0.05).

On to `COC(=O)C[C@@H]1CN(C(=O)c2cccnc2NCCC(C)C)C[C@@H](C)N1Cc1ccccc1` [Compound 64], for which the concentration giving a half-maximal response (EC50) is 0.00858 nM and the “Average ALPHA signal” value was 2.26 (0.07).

Turning to `CC(C)CCNc1ncccc1C(=O)N1C[C@@H](CC(=O)O)N(Cc2ccccc2)[C@@H](C)C1` [Compound 65], the “Average ALPHA signal” value is listed as 0.99 (0.04).

Turning to `CC(C)CCNc1ncccc1C(=O)N1C[C@H](CC(=O)O)N(Cc2ccccc2)[C@@H](C)C1` [Compound 66], the “Average ALPHA signal” value is given as 0.96 (0.03).

`CC(C)CCNc1ncccc1C(=O)N1C[C@H](CC(=O)O)N(Cc2ccccc2)[C@H](C)C1` [Compound 67]: the “Average ALPHA signal” value is listed as 0.97 (0.03).

As to `CC(C)CCNc1ncccc1C(=O)N1C[C@@H](CC(=O)O)N(Cc2ccccc2)[C@H](C)C1` [Compound 68], the “Average ALPHA signal” value is on record as 1.02 (0.03).

`COC(=O)C[C@@H]1[C@H](C)N(Cc2ccccc2)CCN1C(=O)c1cccnc1NCCC(C)C` [Compound 69]: it took 0.0081 nM to reach a half-maximal effect (EC50) and the “Average ALPHA signal” value is 2.53 (0.08).

As for `COC(=O)C[C@H]1[C@H](C)N(Cc2ccccc2)CCN1C(=O)c1cccnc1NCCC(C)C` [Compound 70], the EC50 was determined as 0.00485 nM and the “Average ALPHA signal” value was 2.63 (0.01).

`COC(=O)C[C@H]1[C@@H](C)N(Cc2ccccc2)CCN1C(=O)c1cccnc1NCCC(C)C` [Compound 71]: the “Average ALPHA signal” value is 2.47 (0.03).

As for `COC(=O)C[C@@H]1[C@@H](C)N(Cc2ccccc2)CCN1C(=O)c1cccnc1NCCC(C)C` [Compound 72], the “Average ALPHA signal” value was 2.51 (0.10).

Regarding `COC(=O)C[C@H]1CN(Cc2ccccc2)[C@@H](C)CN1C(=O)c1cccnc1NCCC(C)C` [Compound 73], the “Average ALPHA signal” value is on record as 2.69 (0.07).

In the case of `COC(=O)C[C@@H]1CN(Cc2ccccc2)[C@@H](C)CN1C(=O)c1cccnc1NCCC(C)C` [Compound 74], a half-maximal effect (EC50) was put at 0.00982 nM and the “Average ALPHA signal” value was 2.96 (0.08).

`COC(=O)C[C@@H]1CN(Cc2ccccc2)[C@H](C)CN1C(=O)c1cccnc1NCCC(C)C` [Compound 75]: the EC50 was 0.00794 nM and the “Average ALPHA signal” value was 2.65 (0.04).

For the compound `COC(=O)C[C@H]1CN(Cc2ccccc2)[C@H](C)CN1C(=O)c1cccnc1NCCC(C)C` [Compound 76], the EC50 stood at 0.0126 nM and the “Average ALPHA signal” value is 3.09 (0.18).

For the compound `CC(C)CCNc1ncccc1C(=O)N1CCN(Cc2ccccc2)[C@@H](C)[C@H]1CC(=O)O` [Compound 77], the “Average ALPHA signal” value was 1.09 (0.06).

`CC(C)CCNc1ncccc1C(=O)N1CCN(Cc2ccccc2)[C@@H](C)[C@@H]1CC(=O)O` [Compound 78]: the “Average ALPHA signal” value was 1.16 (0.03).

For the compound `CC(C)CCNc1ncccc1C(=O)N1CCN(Cc2ccccc2)[C@H](C)[C@@H]1CC(=O)O` [Compound 79], the “Average ALPHA signal” value is reported as 1.23 (0.02).

For the compound `CC(C)CCNc1ncccc1C(=O)N1CCN(Cc2ccccc2)[C@H](C)[C@H]1CC(=O)O` [Compound 80], the “Average ALPHA signal” value is 1.11 (0.07).

On to `CC(C)CCNc1ncccc1C(=O)N1C[C@H](C)N(Cc2ccccc2)C[C@@H]1CC(=O)O` [Compound 81], for which the “Average ALPHA signal” value is reported as 1.15 (0.02).

As to `CC(C)CCNc1ncccc1C(=O)N1C[C@H](C)N(Cc2ccccc2)C[C@H]1CC(=O)O` [Compound 82], the “Average ALPHA signal” value is on record as 1.11 (0.02).

In general, EC50 refers to the concentration at which the effect is half-maximal. A higher EC50 goes with lower potency in that assay.
